Source: patent publication US11187660B2, “Fluorescent probes for monitoring voltage by photo-induced electron transfer” (The Regents of the University of California, priority 2011, dated 2021)

Key:
HEK cells [1] = experiment: Bleach rate in HEK cells; format: cell-based, human; settings: for bleach rate: HEK cells, 7 W/cm^2
Protocol: The dibutyl (VFx.4.Cl) dyes stain the cell membranes of HEK293 cells when loaded at a concentration of 2 μM for 15 min at 37° C. in buffer with 0.1% DMSO as cosolvent (FIG. 9A, and FIG. 10). […] The bleach rates of the probes were tested in HEK cells and compared with di-4-ANEPPS. The bleach rates for VF1.4.Cl, VF2.4.Cl, and VF2.1.Cl at 7 W/cm^2 were measured to be 3.9±0.1×10^−2 s^−1, 1.8±0.1×10^−2 s^−1, and 8.0±0.1×10^−3 s^−1, respectively.
For studies to determine excitation sensitivity of dyes, illumination was provided by a Polychrom IV light source (T.I.L.L. Photonics GMBH) with a mechanical shutter (Uniblitz VS25). For all other studies, light was provided by an Xenon arc lamp powered by an Optiquip Power supply (Optiquip) with a mechanical shutter controlled by a Lambda 10-2 controller (Sutter). Light from the Xenon arc lamp was filtered through a 480 nm filter (30 nm bandpass, Chroma), a 510 nm dichroic (Semrock), a 530 nm emission filter (50 nm bandpass, Semrock), and focused through a 40×/1.4 oil objective. For di-4-ANEPPS imaging, a 625 nm emission filter with a 50 nm bandpass was used. Bleaching studies used identical illumination conditions (480/30 nm excitation, 510 nm dichroic, 7 W/cm^2 output) and were corrected by normalizing for the extinction coefficient at the excitation wavelengths (465-495 nm).

[2] = Absorbance and emission spectra in aqueous buffer with Triton X-100; format: physicochemical; settings: 5 mM sodium phosphate, pH 9, 0.1% Triton X-100
Protocol: FIG. 8A, FIG. 8B, and FIG. 8C show the normalized absorbance and emission spectra for exemplary compounds of the invention in 5 mM sodium phosphate, pH 9 with 0.1% Triton X-100. Black lines are absorbance spectra; grey lines are emission spectra. a) VF1.4.Cl, b) VF2.4.Cl, and c) VF2.1.Cl.
All dyes feature emission and excitation profiles typical of dichlorofluoresceins (VF1.4.Cl: λmax=521 nm, ε=93,000 M^−1·cm^−1, λem=534 nm, Φ=0.24; VF2.4.Cl: λmax=522 nm, ε=97,000 M^−1·cm^−1, λem=536 nm, Φ=0.054; VF2.1.Cl: λmax=522 nm, ε=98 000 M^−1·cm^−1, λcm=535 nm, Φ=0.057, 5 mM sodium phosphate, pH 9, 0.1% Triton X-100) (FIG. 8).
UV absorbance and fluorescence spectra were recorded on a Cary 3E (Varian) and Fluorolog 2 (Spex) fluorimeter, respectively. Analytical, semi-preparative, and preparative HPLCs were performed on Agilent HPLCs, with Luna C18(2) columns (Phenomenex) using water (solvent A) and acetonitrile (solvent B) with 0.05% TFA as an additive. Low resolution ESI mass spectrometry was performed on an Agilent LC/MSD Trap XCT coupled to an Agilent HPLC. High resolution mass spectra were acquired on a ThermoFisher Orbitrap XL hybrid mass spectrometer. ^1H NMR spectra were collected in CDCl3 or d6-DMSO (Cambridge Isotope Laboratories, Cambridge, Mass.) at 25° C. on a 400 Varian Mercury Plus or Jeol ECA 500 spectrometer at the Department of Chemistry and Biochemistry NMR Facility at the University of California, San Diego. All chemical shifts are reported in the standard δ notation of parts per million using the peak of residual proton signals of CDCl3 or d6-DMSO as an internal reference.

HEK293 cells [3] = experiment: Voltage sensitivity of fluorescence in voltage-clamped HEK cells (whole-cell recording); format: cell-based, human
From the text: Membrane voltage of cells loaded with VF1.4.Cl or VF2.4.Cl were controlled by making tight-seal whole-cell recordings. Cells were maintained at a holding potential of −60 mV and stepped for 50 ms to various depolarizing and hyperpolarizing potentials (FIG. 5A), while simultaneously acquiring epifluorescence images. For both sensors, depolarizing steps result in fluorescence increases while hyperpolarizing steps decrease fluorescence intensity, in keeping with our proposed mechanism. […] For di-4-ANEPPS, typical values are 0.08-0.12% per mV. The larger changes for VF1.4.Cl and VF2.4.Cl compared to di-4-ANEPPS are somewhat expected, since a PeT-based voltage sensor samples the entire emission spectrum, whereas electrochromic dyes are limited to the edge of the spectrum only. For both probes, the voltage responses are linear across the physiologically relevant ranges of −100 mV to +100 mV. To assess the speed of the optical response to voltage, VF2.4.Cl signals were monitored in response to voltage steps of 100 mV from a holding potential of −60 mV.
We characterized the voltage sensitivity of all three indicators by making tight-seal whole-cell recordings of HEK293 cells stained with the VF sensors. Cells were voltage-clamped at −60 mV holding potential and sequentially stepped to depolarizing and hyperpolarizing potentials at 20-mV increments (FIG. 9B). For all three dyes, depolarizing steps produced fluorescence increases, whereas hyperpolarizing steps produced fluorescence decreases, in keeping with the proposed PeT mechanism. The fluorescence response is linear over the range of −100 mV to +100 mV (FIG. 9C), with voltage sensitivities ΔF/F per 100 mV of 20±1% for VF1.4.Cl and 25±1% for VF2.4.Cl. This statistically significant increase in voltage sensitivity (P<0.05, two-tailed Student t test) is expected upon increasing the length of the molecular wire, and is 2.5- to 4-times more sensitive than di-4-ANEPPS, which, in our hands, gives sensitivities of between 6% and 10% ΔF/F per 100 mV. […] To investigate the speed of response of VF probes, we again made whole-cell recordings of cells stained with VF2.4.Cl, applied 100-mV depolarizing steps from a holding potential of −60 mV, and recorded both the electrophysiological signals and the optical signals.
Electrophysiological recordings of HEK293 cells and cultured neurons were performed with an Axopatch 200A or 200B amplifier (Molecular Devices) at room temperature. The signals were digitized with Digidata 1332A and recorded with pCLAMP 9 software (Molecular Devices) on a PC. Analysis of electrophysiological data was done with AxoGraph X (AxoGraphX), pCLAMP 9, and/or ClampFit (Molecular Devices). For most experiments the extracellular solution consisted of (in mM) 145 NaCl, 20 glucose, 10 HEPES, 3 KCl, 2 CaCl2, 1 MgCl2 (pH 7.35, 310 mOsm). The intracellular solution contained (in mM) 115 potassium gluconate, 10 BAPTA tetrapotassium salt, 10 HEPES, 5 NaCl, 10 KCl, 2 ATP disodium salt, 0.3 GTP trisodium salt (pH 7.25, 290 mOsm).
For studies to determine excitation sensitivity of dyes, illumination was provided by a Polychrom IV light source (T.I.L.L. Photonics GMBH) with a mechanical shutter (Uniblitz VS25). For all other studies, light was provided by an Xenon arc lamp powered by an Optiquip Power supply (Optiquip) with a mechanical shutter controlled by a Lambda 10-2 controller (Sutter). […]

HEK cells [4] = settings: literature (32); cited from earlier work
HEK293 cells [5] = settings: typical values for di-4-ANEPPS; cited from earlier work
HEK cells [6] = experiment: Excitation wavelength dependence of voltage response in HEK cells; format: cell-based, human; settings: 100 mV depolarizing steps, excitation 445 to 500 nm in 5 nm increments for VF2.4.Cl
From the text: The ΔF/F for VF2.4.Cl is relatively insensitive to the excitation wavelength. As opposed to di-4-ANEPPS and other electrochromic dyes (ref the biochemistry paper and the ANINNE6 2004 Denk paper), which are highly sensitive to excitation wavelength, PeT-based sensors yield fluorescent responses which are invariant across their excitation spectra. To establish the invariant nature of the fluorescence response, HEK cells were loaded, as before, with VF2.4.Cl and subjected to depolarizing steps of 100 mV, each time varying the excitation wavelength. […] In contrast, di-4-ANEPPS varies by nearly 100%. Excitation at the red edge of the spectrum gives a maximal response whereas excitation at the blue edge gives a response that is some 10- to 20-fold less than the maximal response.
The fluorescence response of VF2.4.Cl to voltage changes is insensitive to the excitation wavelength, as is true for PeT-based probes, such as fluo-3 and Calcium Green-1. We assayed the wavelength dependence of VF2.4.Cl by changing the excitation wavelength in 5-nm steps and determined that the fluorescence response of VF2.4.Cl to a 100-mV depolarization from a holding potential of −60 mV varied only about 15% when testing wavelengths from 445 to 500 nm (FIG. 11C). […]

[7] = system: cultured hippocampal neurons; settings: cultured hippocampal neurons (25); cited from earlier work

## CCCCN(CCCC)c1ccc(/C=C/c2ccc(-c3c4cc(Cl)c(=O)cc-4oc4cc(O)c(Cl)cc34)c(S(=O)(=O)O)c2)cc1 [VF1.4.Cl, (E)-5-(4-(dibutylamino)styryl)-2-(2,7-dichloro-6-hydroxy-3-oxo-3H-xanthen-9-yl)benzenesulfonic acid]
HEK cells [1]
  bleach rate: 3.9±0.1×10^−2 s^−1
HEK cells [1]; identical illumination conditions
  bleach rate, fold smaller than di-4-ANEPPS: two-
[2]
  Φ: 0.24
  ε: 93,000 M^−1·cm^−1
  λem: 534 nm
  λmax: 521 nm
HEK293 cells [3]; HEK293 cells voltage-clamped at −60 mV holding potential
  voltage sensitivity ΔF/F per 100 mV: 20±1%
HEK293 cells [3]; HEK cells, holding potential −60 mV
  sensitivity, fractional fluorescence change (ΔF/F) versus change in membrane potential: 0.20±0.01 % per mV

## CCCCN(CCCC)c1ccc2cc(/C=C/c3cc[n+](CCCS(=O)(=O)[O-])cc3)ccc2c1 [di-4-ANEPPS]
HEK cells [4]
  variation of response over excitation spectrum: ~100%
HEK cells [1]
  bleach rate: 6.9±0.1×10^−2 s^−1
HEK293 cells [5]
  sensitivity ΔF/F, typical values: 0.08-0.12 % per mV
HEK cells [6]
  variation of fractional fluorescence response across excitation spectrum: ~100%

## Cc1ccc(N(CC(=O)O)CC(=O)O)c(OCCOc2cc(-c3c4cc(Cl)c(=O)cc-4oc4cc(O)c(Cl)cc34)ccc2N(CC(=O)O)CC(=O)O)c1 [fluo-3]
[7]
  ΔF/F for action potentials: up to 150%
